# In patent publication US20230399341A1, “7-PHENYL SUBSTITUTED 2-AMINOQUINAZOLINE INHIBITORS OF HPK1” (MERCK SHARP & DOHME LLC, priority 2020, published 2023):
# Biological target: T1, Human HPK1, catalytic domain (Homo sapiens, UniProt Q92918)
# T1 sequence (Q92918 1-346): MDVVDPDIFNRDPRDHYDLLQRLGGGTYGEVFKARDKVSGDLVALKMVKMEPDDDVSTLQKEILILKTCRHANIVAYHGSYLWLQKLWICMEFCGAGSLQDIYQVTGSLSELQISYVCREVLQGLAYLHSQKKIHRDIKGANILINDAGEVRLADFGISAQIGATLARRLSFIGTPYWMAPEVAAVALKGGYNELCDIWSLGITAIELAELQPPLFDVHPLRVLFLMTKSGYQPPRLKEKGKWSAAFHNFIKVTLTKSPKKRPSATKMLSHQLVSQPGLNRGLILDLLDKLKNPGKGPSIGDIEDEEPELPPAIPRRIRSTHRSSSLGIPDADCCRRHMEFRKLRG
# Assay: HPK1-SLP76 TR-FRET Assay
# Format: biochemical
# Details: 75 pM HPK1, ATP 10 uM, SLP76 10 nM, 30 min pre-incubation, 60 min reaction
row,IC50 [nM],SMILES
1,97.6,"COc1cc2c(cc1Nc1ncc3ccc(NC4CCN(C)C4=O)cc3n1)CN(C)CC2 (racemic) [Compound 3-56, (S and R)-3-({2-[(6-methoxy-2-methyl-1,2,3,4-tetrahydroiso-quinolin-7-yl)amino]quinazolin-7-yl}amino)-1-methylpyrrolidin-2-one]"
2,100,"Cc1c(-c2cc3nc(Nc4cc5c(cc4C(N)=O)CCN(C)C5)ncc3c(N)c2F)cnc2c1NCCO2 [Compound 2-87, 7-((5-amino-6-fluoro-7-(8-methyl-2,3-dihydro-1H-pyrido[2,3-b][1,4]oxazin-7-yl)quinazolin-2-yl)amino)-2-methyl-1,2,3,4-tetrahydroisoquinoline-6-carboxamide]"
3,149,"COc1cc2c(cc1Nc1ncc3ccc(NCC4CNC(=O)O4)cc3n1)CN(C)CC2 (racemic) [Compound 3-26, (S and R)-5-[({2-1(6-methoxy-2-methyl-1,2,3,4-tetrahydroiso-quinolin-7-yl)amino]quinazolin-7-yl}amino)methyl]-1,3-oxazol-idin-2-one]"
4,0.0607,"Cc1c(-c2cc3nc(Nc4ccc5c(c4)COCC5)ncc3c(N)c2F)cnc2c1NCCO2 [Compound 2-118, N~2~-(3,4-dihydro-1H-2-benzopyran-7-yl)-6-fluoro-7-(8-methyl-2,3-dihydro-1H-pyrido[2,3-b][1,4]oxazin-7-yl)quinazoline-2,5-diamine]"
5,230,"COc1cc2c(cc1Nc1ncc3ccc(-c4c(C)cccc4F)cc3n1)CN(C)CC2 [Compound 1-5, 7-(2-fluoro-6-methylphenyl)-N-(6-methoxy-2-methyl-1,2,3,4-tetrahydroisoquinolin-7-yl)quinazolin-2-amine]"
6,0.0835,"Cc1c(-c2cc3nc(Nc4ccc(CC(=O)N5CCOCC5)cc4)ncc3cc2F)cnc2c1NCCO2 [Compound 1-133, 2-(4-{[6-fluoro-7-(8-methyl-2,3-dihydro-1H-pyrido[2,3-b][1,4]oxazin-7-yl)quinazolin-2-yl]amino}phenyl)-1-(morpholin-4-yl)ethan-1-one]"
7,0.679,"CNC(=O)c1ccc(Nc2ncc3c(N)c(F)c(-c4cnc5c(c4C)NCCO5)c(Cl)c3n2)c(OC)c1 [Compound 2-97, (+ or −)-4-{[5-amino-8-chloro-6-fluoro-7-(8-methyl-2,3-dihydro-1H-pyrido[2,3-b][1,4]oxazin-7-yl)quinazolin-2-yl]amino}-3-methoxy-N-methylbenzamide]"
8,0.0589,"Cc1c(-c2c(F)c(N)c3cnc(Nc4ccc5c(c4)CN(C)CC5)nc3c2Cl)cnc2c1NCCO2 [Compound 2-95, (+ or −)-8-chloro-6-fluoro-7-(8-methyl-2,3-dihydro-1H-pyrido[2,3-b][1,4]oxazin-7-yl)-N~2~- (2-methyl-1,2,3,4-tetrahydroisoquinolin-7-yl)quinazoline-2,5-diamine]"
9,34.8,"COc1ccc(-c2ccc3cnc(Nc4cc5c(cc4OC)CCNC5)nc3c2)cn1 [Compound 1-39, 7-(6-methoxypyridin-3-yl)-N-(6-methoxy-1,2,3,4-tetrahydroisoquinolin-7-yl)quinazolin-2-amine]"
10,0.633,"COc1cc2c(cc1Nc1ncc3c(N)cc(-c4cnc5c(c4C)NCCO5)cc3n1)CN(C)CC2 [Compound 2-40, N~2~-(6-methoxy-2-methyl-1,2,3,4-tetrahydroisoquinolin-7-yl)-7-(8-methyl-2,3-dihydro-1H-pyrido[2,3-b][1,4]oxazin-7-yl)quinazoline-2,5-diamine]"
11,0.0222,"Cc1c(-c2cc3nc(Nc4ccc(CS(C)(=O)=O)nc4)ncc3c(N)c2F)cnc2c1NCCO2 [Compound 2-84, 6-fluoro-7-(8-methyl-2,3-dihydro-1H-pyrido[2,3-b][1,4]oxazin-7-yl)-N2-(6-((methylsulfonyl)methyl)pyridin-3-yl)quinazoline-2,5-diamine]"
12,140,"COc1cc2c(cc1Nc1ncc3ccc(-c4ccccc4)cc3n1)CN(C)CC2 [Compound 1-1, N-(6-methoxy-2-methyl-1,2,3,4-tetrahydroisoquinolin-7-yl)-7-phenylquinazolin-2-amine]"
13,0.0888,"CCS(=O)(=O)Cc1ccc(Nc2ncc3c(N)c(F)c(-c4cnc5c(c4C)NCCO5)cc3n2)c(F)c1 [Compound 2-143, N~2~-{4-[(ethylsulfonyl)methyl]-2-fluorophenyl}-6-fluoro-7-(8-methyl-2,3-dihydro-1H-pyrido[2,3-b][1,4]oxazin-7-yl)quinazoline-2,5-diamine]"
14,0.0505,"Cc1c(-c2cc3nc(Nc4ccc5c(c4)CN(C)CC5)ncc3c(N)c2F)cnc2c1NCC(C)O2 (single isomer, unassigned) [Compound 2-141, (R or S)-7-(3,8-dimethyl-2,3-dihydro-1H-pyrido[2,3-b][1,4]oxazin-7-yl)-6-fluoro-N2-(2-methyl-1,2,3,4-tetrahydroisoquinolin-7-yl)quinazoline-2,5-diamine]"
15,719,"COc1cc2c(cc1Nc1ncc3ccc(N4CCN(C5CC5)C(=O)C4)cc3n1)CN(C)CC2 [Compound 3-73, 1-cyclopropyl-4-{2-[(6-methoxy-2-methyl-1,2,3,4-tetrahydroiso-quinolin-7-yl)amino]quinazolin-7-yl}piperazin-2-one]"
16,48,"COc1cc2c(cc1Nc1ncc3ccc(-c4cncc(NS(=O)(=O)C(C)C)c4)cc3n1)CNCC2 [Compound 1-51, N-(5-{2-[(6-methoxy-1,2,3,4-tetrahydroisoquinolin-7-yl)amino]quinazolin-7-yl}pyridin-3-yl)propane-2-sulfonamide]"
17,5.9,"COc1cc2c(cc1Nc1ncc3ccc(-c4cncc(N5CCNCC5)c4)cc3n1)CNCC2 [Compound 1-50, N-(6-methoxy-1,2,3,4-tetrahydroisoquinolin-7-yl)-7-[5-(piperazin-1-yl)pyridin-3-yl]quinazolin-2-amine]"
18,154,"COc1cc2c(cc1Nc1ncc3ccc(-c4ccn5ncnc5c4)cc3n1)CN(C)CC2 [Compound 1-16, N-(6-methoxy-2-methyl-1,2,3,4-tetrahydroisoquinolin-7-yl)-7-([1,2,4]triazolo[1,5-a]pyridin-7-yl)quinazolin-2-amine]"
19,10.5,"COc1cc2c(cc1Nc1ncc3ccc(-c4cncc5cccnc45)cc3n1)CN(C)CC2 [Compound 1-24, N-(6-methoxy-2-methyl-1,2,3,4-tetrahydroisoquinolin-7-yl)-7-(1,6-naphthyridin-8-yl)quinazolin-2-amine]"
20,0.103,"Cc1c(-c2cc3nc(Nc4ccc5c(c4)CN(C)CC5)ncc3c(N)c2F)cnc2cc[nH]c12 [Compound 2-130, 6-fluoro-7-(7-methyl-1H-pyrrolo[3,2-b]pyridin-6-yl)-N~2~-(2-methyl-1,2,3,4-tetrahydroisoquinolin-7-yl)quinazoline-2,5-diamine]"
21,281,"COc1cc2c(cc1Nc1ncc3ccc(-c4cccc(C(C)(C)NC(C)=O)c4)cc3n1)CN(C)CC2 [Compound 1-100, N-[2-(3-{2-[(6-methoxy-2-methyl-1,2,3,4-tetrahydroisoquinolin-7-yl)amino]quinazolin-7-yl}phenyl)propan-2-yl]acetamide]"
22,0.266,"CNC(=O)c1ccc(Nc2ncc3c(N)c(F)c(-c4cnc5c(c4C)NCCO5)cc3n2)c(OC)c1 [Compound 2-74, 4-{[5-amino-6-fluoro-7-(8-methyl-2,3-dihydro-1H-pyrido[2,3-b][1,4]oxazin-7-yl)quinazolin-2-yl]amino}-3-methoxy-N-methylbenzamide]"
23,0.0706,"Cc1c(-c2c(F)c(N)c3cnc(Nc4ccc5c(c4)CN(C)CC54CC4)nc3c2C)cnc2c1NCCO2 [Compound 2-110, (+ or −)-6-fluoro-8-methyl-N2-(2′-methyl-2′,3′-dihydro-1′H-spiro[cyclopropane-1,4′-isoquinolin]-7′-yl)-7-(8-methyl-2,3-dihydro-1H-pyrido[2,3-b][1,4]oxazin-7-yl)quinazoline-2,5-diamine]"
24,158,"COc1cc2c(cc1Nc1ncc3ccc(OCC4CCN(c5cncc(C)n5)CC4)cc3n1)CN(C)CC2 [Compound 4-4, N-(6-methoxy-2-methyl-1,2,3,4-tetrahydroisoquin-olin-7-yl)-7-{[1-(6-methyl-pyrazin-2-yl)piperidin-4-yl]methoxy}quinazolin-2-amine]"
25,27.9,"COc1cc2c(cc1Nc1ncc3ccc(-c4cncc(NS(C)(=O)=O)c4)cc3n1)CNCC2 [Compound 1-37, N-(5-{2-[(6-methoxy-1,2,3,4-tetrahydroisoquinolin-7-yl)amino]quinazolin-7-yl}pyridin-3-yl)methanesulfonamide]"
26,0.252,"Cc1c(-c2c(F)c(N)c3cnc(Nc4ccc(CS(C)(=O)=O)cc4)nc3c2Cl)cnc2c1NCC(C)(C)O2 [Compound 2-161, (+ and −)-8-chloro-6-fluoro-N~2~-{4-[(methylsulfonyl)methyl]phenyl}-7-(3,3,8-trimethyl-2,3-dihydro-1H-pyrido[2,3-b][1,4]oxazin-7-yl)quinazoline-2,5-diamine]"
27,0.0441,"CNC(=O)C1(c2ccc(Nc3ncc4c(N)c(F)c(-c5cnc6c(c5C)NCCO6)cc4n3)cc2)CC1 [Compound 2-81, 1-(4-((5-amino-6-fluoro-7-(8-methyl-2,3-dihydro-1H-pyrido[2,3-b][1,4]oxazin-7-yl)quinazolin-2-yl)amino)phenyl)-N-methylcyclopropane-1-carboxamide]"
28,148,"COc1cc2c(cc1Nc1ncc3ccc(N(C)CC4CNC(=O)O4)cc3n1)CN(C)CC2 (racemic) [Compound 3-30, (S and R)-5-1112-1(6-methoxy-2-methyl-1,2,3,4-tetrahydroiso-quinolin-7-yl)amino]quinazolin-7-yl}(methyl)amino]methyl}-1,3-oxazolidin-2-one]"
